One compound from patent US20030082227A1, “Transdermal device comprising a reservoir and a matrix containing the same active principle” (priority 1999, published 2003) can be followed below.

The nature of this data set: Solubility of testosterone in tetrahydrofuran. It is filed as physicochemical.

Take `C[C@]12CC[C@H]3[C@@H](CCC4=CC(=O)CC[C@@]43C)[C@@H]1CC[C@@H]2O` [testosterone, 17β-hydroxyandrost-4-en-3-one]: the “solubility of testosterone in THF” value is recorded as around 27 % m/m.
